Consider two compounds from patent US20170369474A1, “COMPOUNDS, COMPOSITIONS AND METHODS OF USE” (Aquinnah Pharmaceuticals, Inc., priority 2014, published 2017).

Like-named read-outs stand apart in the source and are kept apart here.

In assay [1] the test system is TDP-43 inclusions in PC12 cells stably expressing wild type (WT) TDP-43-GFP. The assay can be described thus: Dose response assay for TDP-43 inhibition. In kind it is cell-based. Conditions: Rattus norvegicus, PC-12. How it is done: Exemplary compounds of the invention were evaluated for efficacy in inhibiting TDP-43 inclusions using a dose response assay. Briefly, PC12 cells stably expressing wild type (WT) TDP-43-GFP were stressed with 15 μM to induce TDP-43 inclusions. The cells were then treated with exemplary compounds of the invention and the inhibitory effect on TDP-43 inclusions was observed using fluorescent microscopy. The ratio of cells with TDP-43 inclusions was calculated based on the total number of cells with detectable GFP expression. A 12-point dose response curve was generated, and the IC50 for each compound tested was determined.

For assay [2], the system named is Embryonic mouse hippocampal neurons transduced with TDP-43 EGFP. The assay can be described thus: Neuroprotection assay (total dendrite length). It is filed as cell-based. Conditions: compound at 10 times the IC50 value, treated DIV7, 9, 11; fixed DIV12. As for the experimental part:
CMF dissection buffer: 1× Hank's balanced salt solution (Ca—/Mg, 500 mL) and 10 mM HEPES, pH 7.25-7.3 (IM stock, 5 mL)
Plating media: MEM (Earle salts+/Glutamine, 95 mL), FBS (to 2.5%, 2.5 mL), Pen/Strep (1×, 1 mL), glutamine (1×, 1 mL), and D-glucose (0.6% w/v, 0.6 g)
Feeding media: neurobasal media (96 mL), B27 supplement (2 mL), Pen/Strep (1 mL), and glutamine (1 mL).
Embryonic mouse hippocampal neurons were cultured according to Kaech, S. and Banker, G. (2006) Nat Protoc 1:2406-2415 and dissected at […] from CD1 mice. Once all the hippocampi were removed, they were placed in a 15 mL conical Falcon tube on ice and brought to a final volume of 4.5 mL with CMF dissection buffer. 0.5 mL of a 2.5% trypsin-EDTA solution was then added, and the mixture was incubated at 37° C. for 15 min. […] Neurons were traced and analyzed using NeuronJ.
Results of the neuroprotection assay for exemplary compounds of the invention are summarized in Table 1, wherein A represents an average rescue total dendrite length of >150%; B represents an average rescue total dendrite length of 100-149%; C represents an average rescue total dendrite length of 50-99%; D represents an average rescue total dendrite length of 0-49%; E represents an average rescue total dendrite length of <0%; and ND signifies that the average rescue total dendrite length was not determined.

The test system of assay [3] is TDP-43 aggregates in motor neurons generated from ALS patient-derived iPSCs. The assay can be described thus: Reduction of insoluble TDP-43 levels (immunoblot). In kind it is cell-based. The following applies: 2 μM for 48 hours. As for the experimental part: The cells were differentiated into motor neurons for 22 days, then treated with 2 μM of Compounds 100, 101, and Compound 7 for 48 hours. The cells were lysed and TDP-43 aggregate formation was detected by immunoblot.

The test system of assay [4] is C. elegans expressing A315T hTDP-43. The assay can be described thus: Neuroprotection of C. elegans. In kind it is in vivo. Conditions: 34.8 μM; A315T transgenic animals, second day of adulthood. As for the experimental part:
Age synchronized C. elegans were cultured with 34.8 μM Compound 100 and the effect on the animal's movement and motor neurons were investigated. FIGS. 2A-2C show a comparison between the crawling speed of WT and Tg nematodes expressing wt (FIG. 2A), human wt (FIG. 2B), and A315T hTDP-43 (FIG. 2C) on the second day of adulthood.

Broadly, the IC50 is the concentration at which inhibition is half-maximal. In turn, `CCc1cccc(C)c1NS(=O)(=O)c1c(C(=O)N2CCCC2)c(C)n(C)c1C` [Compound 101, N-(2-ethyl-6-methylphenyl)-1,2,5-trimethyl-4-(pyrrolidine-1-carbonyl)-1H-pyrrole-3-sulfonamide] gave an IC50 in assay [1] of 101 to 250 nM. The “Average Additive Dendrite Length (%)” value in assay [2] is recorded as “A (A represents an average rescue total dendrite length of >150%)”. In assay [3], the “Reduction of TDP-43 aggregates in the sarkosyl insoluble fraction” value is “reduced dimeric and multimeric TDP-43 aggregates”.

As for `Cc1ccc(Cl)cc1NS(=O)(=O)c1c(C(=O)N2CCCC2)c(C)n(C)c1C` [Compound 100, N-(5-chloro-2-methylphenyl)-1,2,5-trimethyl-4-(pyrrolidine-1-carbonyl)-1H-pyrrole-3-sulfonamide], the IC50 in assay [1] (inhibition of TDP-43 inclusions, PC12 cells WT TDP-43-GFP, 12-point dose response, read-out: IC50) is 101 to 250 nM. In assay [2], the “Average Additive Dendrite Length (%)” value was “B (B represents an average rescue total dendrite length of 100-149%)”. Further, the “Reduction of TDP-43 aggregates in the sarkosyl insoluble fraction” value in assay [3] is “reduced dimeric and multimeric TDP-43 aggregates”. Moreover, the “Neuroprotective effect on motor neurons” value in assay [4] is given as “neuroprotective effect”.
